“Also recorded” adds a separate entry of the source.
Assays:
[1] = rabbits, liposomal preparations s.c. 100 nmol/kg, 3 rabbits per group; passes if below 1.1° C.
Method: The test was conducted in an authorised laboratory, ITEST plus s.r.o., Bilé Vchýnice 10, 533 13 Vápno u Prelouce, Czech Republic, according to guide-lines CL 2005.
Rabbits (New Zeeland albino, 4-6 kg, 3 animals per group) were used for testing.
Liposomal preparations of muramyl glycopeptide derivatives were administered s.c. (100 nmol/kg). Empty liposomes were used as negative control and the liposomal as well as the free form of muramyl dipeptide (MDP) (25 μg/kg, corresponding to 50.7 nmol/kg) served as positive control. Temperature was measured in 1, 2, 3, 4,6 and 24 hour intervals.
Empty liposomes were used as negative control; and liposomal as well as free muramyl dipeptide (MDP) (50.7 nmol/kg) served as positive control. B30-norAbu-MDP (MT01, structure on page 5) served as additional control. Temperature was measured in 1, 2, 3, 4, 6 and 24 h intervals. The preparation passed the test if the Sum of ΔTmax remained below 1.1° C. (3 rabbits per group)

[2] = test system: r-hsp90 (Candida albicans hsp90) specific IgG antibodies; experiment: Proteoliposome vaccine against C. albicans hsp90: antibody (humoral) response, ELISA; assay type: in vivo, BALB/c mice; details: Experiment 12.2; liposomal compound (5%) + Ni-HSP90, boost day 14; FIG. 13
Method: (§1) Proteoliposomes were prepared by coupling recombinant hsp90 antigen (r-hsp90, 6×HISTag) via a metal chelating lipid to liposomes containing muramyl glycopeptide derivatives as adjuvant component. BALB/c […] mice 4 to 5 weeks old (female 20±2 g, 5 animal per group) were immunized by the intradermal route either with 20 μg of free or liposomal r-hsp90 (volume of 60 μl) either with or without L18-norAbu-MDP and boosted 21 days later by the same composition of experimental vaccine. FCA was used as positive control r-hsp90. Liposomal vaccine composition 20 μg of rHSP90 antigen, 5% metallochelating lipid, 5% particular MT analogue, 90% phospolipids.
Blood samples were collected from the tail vein into heparinised capillary PCV tubes. After centrifugation, the upper part of the tube, containing […] blood serum, was cut off, thrown into […] diluting solution and thoroughly shaken. Thus, a basic dilution of 1:33 was obtained. The pre-diluted sera were kept at −20° C. Blood samples were collected before the first immunization, 2 weeks thereafter and subsequently at weekly intervals up to the 4th week after the second immunisation. Specific IgG antibodies in blood serum samples were determined by the standard indirect ELISA procedure. The data obtained were processed statistically using the non-parametric Mann-Whitney U-test.
Proteoliposomes with muramyl glycopeptide derivatives were prepared as described above, but the boost was carried out already after 14 days. The liposomal vaccine composition was as for Experiment Set 1: 20 μg of rHSP90 antigen, 5% metallochelating lipid, 5% particular MT analogue, 90% phospolipids.
Controls: Aluminum hydroxide (AlOH) and Freund complete adjuvans (FCA) were used as positive controls. PBS with empty liposomes was used as negative control (control). Humoral response was tested at day 14 after vaccination (post priming) and at day 20 after vaccination (post booster). Antibody titres were wer assayed by ELISA.

[3] = test system: IFN-γ production in splenocytes stimulated by rHSP90; experiment: Proteoliposome vaccine against C. albicans hsp90: cellular response (IFN-γ in splenocytes stimulated by rHSP90); assay type: in vivo, BALB/c mice; details: Experiment 12.3; liposomal compound (5%) + Ni-HSP90, day 20; FIG. 14
Method: as §1
Production of INF-γ was mesured by standard ELISPOT assay (R&D, USA). Immunised mice were sacrified 4 weeks after booster imunisation and splenocytes were isolated, and stimulated by r-hsp90 (50 μg/ml) and spots were counted.
Proteoliposomes with muramyl glycopeptide derivatives were prepared as described above. Experimental conditions were as for Experiment 12.2.
Cell mediated immune response against rHSP90 antigen formulated in liposomal experimental vaccine was tested at day 20 (6 days after booster). Mice were sacrificed, splenocytes were purified and production of IFN-γ in splenocytes stimulated by rHSP90 was assayed by flow cytometry.

[4] = test system: NK sensitive K562 cell line; experiment: NK cell cytotoxicity of human PBMC, 51Cr-release against K562; assay type: cell-based; details: for dose response of NK cell activity: range 0.1 μM-100 μM, FIG. 28
Method: Ex vivo effects of test compounds on NK cells were evaluated on human peripheral blood mononuclear cells (PBMC). The NK cell cytotoxicity of healthy donors in the presence or absence of test compounds was measured in standard 4 hrs ^51Cr-release assay against NK sensitive K562 cell line in effector (PBMC) to target (K562) ratio 16:1. Test compounds were added at a concentration of 10^−7 mol/ml.
Testing of compounds 23, 24, 32, 33, 40 and 41 for their capacity to induce cell-mediated cytotoxicity of human eripheral blood mononuclear cells (PBMCs) is shown in FIGS. 27 and 28. All donors were healthy. […] The cytotoxicity of untreated controls (30.5%) was renormalized to 100%.

[5] = test system: myelin basic protein induced EAE; experiment: Experimental allergic encephalomyelitis (EAE), Th1 adjuvant activity; assay type: in vivo, guinea pigs; details: guinea pigs sensitized with bovine MBP in IFA + compound; FIG. 31
[6] = Survival after lethal irradiation (10 Gy); assay type: in vivo, mice (strain ICR); details: 200 nmol s.c. 24 h before 10 Gy; FIG. 37
Method: Preparations (200 nmol of active substance) were applied to mice (strain ICR, female, 3 months of age, 10 mice per group) by s.c. route 24 h before irradiation (radiation dose of 10 Gy from a ^60Co gamma-ray source at a dose rate of 0.285 Gy/min). PBS and empty liposome served as negative controls, free and liposomal muramyl dipeptide (MDP) served as positive controls.

[7] = test system: Salmonella enteritidis; experiment: Stimulation of innate immunity against Salmonella Enteritidis; details: for protective effect / survival rate in S. Enteritidis infection: 0 or 1 case of death by day 12; for Day 6 Intest.: clear/infected/dead / Day 6 Liver: clear/infected/dead / Day 6 Lungs: clear/infected/dead / Day 6 Spleen: clear/infected/dead / Day 12 Intest.: clear/infected/dead / Day 12 Liver: clear/infected/dead / Day 12 Lungs: clear/infected/dead / Day 12 Spleen: clear/infected/dead: liposomal, 20 nmol per dose p.o. 72 and 24 h before infection (LD50), 5 mice
[8] = test system: Friend leukemia virus (FLV); experiment: Friend leukemia virus infection: survival, TER-119+ cells, spleen
[9] = test system: NK-sensitive YAC1 target cells; experiment: NK cell-mediated cytotoxicity of spleen mononuclear cells, 51Cr-release against YAC1; details: FLV-inoculated mice, day 16, 18 h incubation with YAC1; FIG. 26
[10] = test system: granulocyte-macrophage progenitor cells (GM-CFC); experiment: Colony stimulating activity (CSA) of serum on GM-CFC; assay type: in vivo, mouse; details: liposomal compounds; FIG. 32
Method: Determination of Colony stimulating activity (CSA) and co-stimulating activity (CoSA) in serum: Blood was taken at intervals from 5 to 48 h after injection of the test compounds, and the ability of the sera from treated mice to stimulate in vitro growth of colonies from granulocyte-macrophage progenitor cells (GM-CFC) was determined. CoSA was determined as the ability of tested compounds, sera of treated mice, or conditioned medium from cultures of adherent stromal cells to enhance the number of GM-CFC colonies induced by a sub-optimal concentration of rmIL-3 in the above-described GM-CFC assay. The concentration of rmIL-3 was adjusted to a value which yielded one third of the maximum number of colonies on a dose-dependent curve.

[11] = test system: GM-CFC progenitors in bone marrow; experiment: GM-CFC recovery, test compounds after sub-lethal irradiation; assay type: in vivo, ICR/CD-1 mice; details: s.c. 100 nmol 24 h after 6 Gy; FIG. 36
Method: Institite of Cancer Research (ICR/CD-1) mice (female, age of 3 months, 3-4 per group) were stimulated by s.c. administration of test compounds (volume of 200 μl, 100 nmol per dose) 24 h before sublethal γ-irradiation (6 Gy, ^60Co γray source Chisostat, Chirana Ltd., Czech Republic, at a dose of 0.285 Gy/min.). Mice were sacrified at day 13 and recovery of GM-CFC in femour was assayed by counting of colonies (CFC) formed after cultivation in medium. Non-irradiated mice were used as control for normal GM-CFC count in femour. PBS and empty liposomes were used as controls for spontaneous recovery. Liposomal MDP was used as reference standard.
The following parameters of hemopoiesis were evaluated: • a) Blood leukocyte counts and bone marrow cellularity. Blood leukocytes (samples of blood drawn from an incision of the tail vein) and nucleated cell elements of the femoral bone marrow (femoral diaphyses flushed with saline) were estimated by means of Coulter Counter (Model ZN, Coulter Electronics). • b) Colony-forming cells in spleen. Endogenous spleen colony-forming units (E-CFUs) were measured on day 9 post the whole-body irradiation with 6.5 Gy (5 mice per group) according to Till and McCulloch. • c) GM-CFC progenitors in bone marrow. Femoral bone marrow cells were obtained from mice by flushing the femour with sterile IMDM medium. Harvested cells were calculated and diluted to 1.5×10^5 cells/ml and plated in triplicate in a semisolid environment created by plasma clot (Iscovess modification of Dulbecco's medium, 20% of fetal calf serum, 10% of colony-stimulating factor, 10% of citrate plasma, and CaCl2 1.5 mg/ml). The cultures were incubated for 7 days at 37° C. in 5% CO2. Colonies of at least 50 cells were scored at 40× magnification.
The method is exactly as described above except that the test compounds (volume of 200 μl, 100 nmol per dose) were administered 24 h after sublethal γ-irradiation (6 Gy).

Row | SMILES | +ΔTmax (Sum of ΔTmax) [1] [°C] | antibody response to r-hsp90 proteoliposomes [2] | cell-mediated response to r-hsp90 proteoliposomes [3] | dose response of NK cell activity [4] | protective effect / survival rate in S. Enteritidis infection [7] | Day 6 Intest.: clear/infected/dead [7] | Day 6 Liver: clear/infected/dead [7] | Day 6 Lungs: clear/infected/dead [7] | Day 6 Spleen: clear/infected/dead [7] | Day 12 Intest.: clear/infected/dead [7] | Day 12 Liver: clear/infected/dead [7] | Day 12 Lungs: clear/infected/dead [7] | Day 12 Spleen: clear/infected/dead [7] | NK cell activity (cell-mediated cytotoxicity of SMCs) [9] | further results
1 | CCCCCCCCCCCCCCC(CCCCCCCCCCCCCC)C(=O)N[C@H]1[C@H](O[C@H]2[C@H](OCC(=O)N[C@@H](CC)C(=O)N[C@H](CCC(=O)O)C(N)=O)[C@@H](NC(C)=O)C(O)O[C@@H]2CO)O[C@H](CO)[C@@H](O)[C@@H]1O (stereo partly drawn) [Compound 24, N-{2-O-[2-deoxy-2-(2-tetradecyl-hexadecanoylamino)-β-D-gluco-pyranosyl-(1→4)-2-acetamido-2,3-dideoxy-α-D-glucopyranosid-3-yl]glycoloyl}-L-α-aminobutanoyl-D-isoglutamine] | 0.7 | weak to non-existent antibody responses; also recorded: virtually no Th2-type response | strong Th1-type responses | negative dose response | good protective effects | 4/1/0 | 3/2/0 | 4/1/0 | 3/2/0 | 3/1/1 | 3/1/1 | 4/0/1 | 3/1/1 | inhibitory effect | lag time to reach full NK stimulating activity ([4]; no vs 18 h pre-incubation): most pronounced; Th1 stimulation (EAE) [5]: strongest effect on Th1 stimulation; survival of lethally irradiated mice [6]: smaller survival benefit; survival, late phase (days 55 and 59), long-term ([8]; 10 μmol i.p., non-liposomal, control 0%, FIG. 23, listed as substance 24): 30%; survival, early phase (day 43) ([8]; 10 μmol i.p., non-liposomal, saline control 82%, FIG. 23): survival rate worse than control; clonal expansion of TER-119+ erythroleukaemia cells in spleen ([8]; day 16, FIG. 24): pronounced opposite effect; spleen size (weight) ([8]; day 16, FIG. 25): spleen size slightly lower than the control
2 | CCCCCCCCCCCCCCC(CCCCCCCCCCCCCC)C(=O)NCCCC[C@H](NC(=O)CC[C@@H](NC(=O)[C@H](CC)NC(=O)CO[C@H]1[C@H](O)[C@@H](CO)OC(O)[C@@H]1NC(C)=O)C(N)=O)C(=O)O (stereo partly drawn) [Compound 33, N-[2-O-(2-Acetamido-2,3-dideoxy-α-D-glucopyranosid-3-yl)-glycoloyl]-L-α-aminobutanoyl-D-isoglutaminyl-L-lysine(2-tetradecylhexadecanoyl)] | 0.4 | strong and comparable to AlOH | good results | positive dose response | good protective effects | 5/0/0 | 5/0/0 | 5/0/0 | 2/3/0 | 2/2/1 | 1/3/1 | 2/2/1 | 1/3/1 | partially 33, had an inhibitory effect | GM-CFC stimulating activity (CSA) in serum [10]: no effect; GM-CFC progenitor cells in bone marrow [11]: strongest performers
